{"source": "patent EP3290412A1", "about": "“HIV-1 NUCLEOCAPSID INHIBITORS” (Università degli Studi di Siena, priority 2016, dated 2018)", "origin": "cited, not measured here", "system": "NIH Catalogue Number: 11845", "conditions": "INI resistant strain 11845; cited from earlier work", "data": [{"smiles": "COc1cc2c(cc1Cc1cccc(Cl)c1F)c(=O)c(C(=O)O)cn2[C@H](CO)C(C)C", "note": "[Elvitegravir™, Elvitegravir]", "values": [{"measurement": "Level of resistance", "result": "Intermediate"}]}]}
